Reference: ChEMBL document CHEMBL1201862, “PubChem BioAssay data set” (2004)
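Interpolation was linear, between the two tested concentrations surrounding the appropriate level; five concentrations were tested over 48 hours in 96-well plates. GI50 is the concentration that inhibits growth by half.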 Calls of active or inactive are those of the source. Rule as the data show it: active = GI50 up to about 1.1 µM and inactive = higher.

Tests used:
Experiment in all cases: NCI-60 cell line screen, 48 h
SW-620 = tested on: SW-620
HCT-116 = tested on: HCT-116
BT-549 = tested on: BT-549
OVCAR-5 = tested on: OVCAR-5
NCI-H226 = tested on: NCI-H226
NCI-H23 = tested on: NCI-H23
DU-145 = tested on: DU-145
UACC-62 = tested on: UACC-62
COLO 205 = tested on: COLO 205
NCI-H522 = tested on: NCI-H522
CCRF-CEM = tested on: CCRF-CEM
NCI/ADR-RES = tested on: NCI/ADR-RES
TK-10 = tested on: TK-10
SN12C = tested on: SN12C
IGROV-1 = tested on: IGROV-1
Hs-578T = tested on: Hs-578T
MDA-N = tested on: MDA-N
M14 = tested on: M14
ACHN = tested on: ACHN
HL-60 = tested on: HL-60

SMILES | GI50 (SW-620) | GI50 (HCT-116) | GI50 (BT-549) | GI50 (OVCAR-5) | GI50 (NCI-H226) | GI50 (NCI-H23) | GI50 (DU-145) | GI50 (UACC-62) | GI50 (COLO 205) | GI50 (NCI-H522) | GI50 (CCRF-CEM) | GI50 (NCI/ADR-RES) | GI50 (TK-10) | GI50 (SN12C) | GI50 (IGROV-1) | GI50 (Hs-578T) | GI50 (MDA-N) | GI50 (M14) | GI50 (ACHN) | GI50 (HL-60)
COc1ccc(/C=C2\N=C(SC)NC2=O)cc1 | > 100 µM (inactive) | > 100 µM (inactive) | 42.8 µM (inactive) | > 100 µM (inactive) | > 100 µM (inactive) | 67 µM (inactive) | 53.8 µM (inactive) | 70.3 µM (inactive) | 98.6 µM (inactive) | 69 µM (inactive) | 81.8 µM (inactive) | > 100 µM (inactive) | 86.1 µM (inactive) | > 100 µM (inactive) | 56.5 µM (inactive) | 64.6 µM (inactive) | 83.6 µM (inactive) | > 100 µM (inactive) |  | 
NC(=O)c1csc(-c2ccc(CO)o2)n1 | > 100 µM (inactive) | > 100 µM (inactive) | > 100 µM (inactive) | > 100 µM (inactive) | > 100 µM (inactive) | > 100 µM (inactive) | > 100 µM (inactive) | > 100 µM (inactive) | > 100 µM (inactive) | > 100 µM (inactive) |  | > 100 µM (inactive) | > 100 µM (inactive) | > 100 µM (inactive) | > 100 µM (inactive) |  | > 100 µM (inactive) | > 100 µM (inactive) | > 100 µM (inactive) | > 100 µM (inactive)
CCN(CC)CC[S+]([O-])c1c2cc(OC)ccc2nc2ccc(OC)cc12 (configuration not stated) | 3.03 µM (inactive) | 2.19 µM (inactive) | 15.8 µM (inactive) | 16.6 µM (inactive) | 18.1 µM (inactive) | 7.64 µM (inactive) | 1.91 µM (inactive) | 17.8 µM (inactive) | 1.88 µM (inactive) | 0.603 µM (active) | 3.14 µM (inactive) | 19.6 µM (inactive) | 5.56 µM (inactive) | 4.49 µM (inactive) | 2.54 µM (inactive) | 3.24 µM (inactive) |  | 9.55 µM (inactive) | 2.38 µM (inactive) | 3.67 µM (inactive)
COc1cc(C2SCC(=O)N2c2ccc(Oc3ccc(Cl)cc3)c(Cl)c2)cc(OC)c1OC (configuration not stated) | 21 µM (inactive) | 18.7 µM (inactive) | 16.5 µM (inactive) | 23.2 µM (inactive) | 15.8 µM (inactive) | 32.8 µM (inactive) | 13.3 µM (inactive) | 16 µM (inactive) | 19.7 µM (inactive) | 12 µM (inactive) |  | 16.6 µM (inactive) | 17.6 µM (inactive) | 27.3 µM (inactive) | 15.6 µM (inactive) | 22.2 µM (inactive) | 20 µM (inactive) | 29.9 µM (inactive) | 30.9 µM (inactive) | 
CCOC(=O)c1c(OCC)[nH]c(=O)c(C(c2ccc(F)cc2)c2c(O)c(C(=O)OCC)c(OCC)[nH]c2=O)c1O | 17.3 µM (inactive) | 25.7 µM (inactive) | 9.71 µM (inactive) | 29 µM (inactive) | 9.82 µM (inactive) | 19.5 µM (inactive) | 11.1 µM (inactive) | 15.6 µM (inactive) | 25.9 µM (inactive) | 18.6 µM (inactive) | 33.1 µM (inactive) | 24.1 µM (inactive) | 25.2 µM (inactive) | 14.7 µM (inactive) | 14.9 µM (inactive) | 20.8 µM (inactive) |  | 24.6 µM (inactive) | 16.3 µM (inactive) | 17.2 µM (inactive)
CCCCCCCC(CC(=O)NC(CO)C(=O)NC(CO)CC(C)C)OC(=O)CC(CCCCCCC)OC(=O)CC(CCCCCCC)OC1OC(C)C(O)C(OC2OC(C)C(O)C(OC(C)=O)C2O)C1O (configuration not stated) | 14.9 µM (inactive) | 13.1 µM (inactive) | 6.47 µM (inactive) | 11.7 µM (inactive) | 17.4 µM (inactive) | 14.2 µM (inactive) | 10.4 µM (inactive) | 12.9 µM (inactive) | 5.86 µM (inactive) | 15 µM (inactive) | 5.2 µM (inactive) |  | 15.6 µM (inactive) | 7.05 µM (inactive) | 12.3 µM (inactive) | 4.1 µM (inactive) | 5.41 µM (inactive) | 10.7 µM (inactive) | 17.2 µM (inactive) | 5.69 µM (inactive)
O=C(Cn1c2c(c3ccccc31)CCCC2)N1CCOCC1 | > 100 µM (inactive) | > 100 µM (inactive) | > 100 µM (inactive) | 87.3 µM (inactive) |  | > 100 µM (inactive) |  | > 100 µM (inactive) | > 100 µM (inactive) |  | > 100 µM (inactive) | > 100 µM (inactive) | > 100 µM (inactive) | > 100 µM (inactive) | > 100 µM (inactive) | 35.2 µM (inactive) | > 100 µM (inactive) | > 100 µM (inactive) | > 100 µM (inactive) | > 100 µM (inactive)
O=C(N[C@@H](c1ccccc1)[C@@H](O)C(=O)OCc1ccc([N+](=O)[O-])cc1)c1ccccc1 | > 100 µM (inactive) | > 100 µM (inactive) | > 100 µM (inactive) | > 100 µM (inactive) | > 100 µM (inactive) | > 100 µM (inactive) | > 100 µM (inactive) | > 100 µM (inactive) | > 100 µM (inactive) | > 100 µM (inactive) | 67.6 µM (inactive) | > 100 µM (inactive) | > 100 µM (inactive) | > 100 µM (inactive) | > 100 µM (inactive) | > 100 µM (inactive) | > 100 µM (inactive) |  | > 100 µM (inactive) | 
Cc1ccc(N2CCN(CCC(=O)O)CC2)cc1 | > 100 µM (inactive) | > 100 µM (inactive) | > 100 µM (inactive) | > 100 µM (inactive) | > 100 µM (inactive) | > 100 µM (inactive) | > 100 µM (inactive) | > 100 µM (inactive) | > 100 µM (inactive) | > 100 µM (inactive) | 52.7 µM (inactive) | > 100 µM (inactive) | > 100 µM (inactive) | > 100 µM (inactive) | > 100 µM (inactive) | > 100 µM (inactive) |  | > 100 µM (inactive) | > 100 µM (inactive) | 0.834 µM (active)
O=C1Cc2c([nH]c3ccccc23)C2(CC3CCCCN13)OCCO2 (configuration not stated) | > 100 µM (inactive) | > 100 µM (inactive) | > 100 µM (inactive) | > 100 µM (inactive) | > 100 µM (inactive) | > 100 µM (inactive) | > 100 µM (inactive) | 76.9 µM (inactive) | > 100 µM (inactive) |  | 90.4 µM (inactive) | > 100 µM (inactive) | > 100 µM (inactive) | > 100 µM (inactive) | 45.2 µM (inactive) | 89.9 µM (inactive) |  | > 100 µM (inactive) | > 100 µM (inactive) | 
CCOC(=O)Nn1cnnc1Cc1ccccc1 | > 100 µM (inactive) | > 100 µM (inactive) | > 100 µM (inactive) | > 100 µM (inactive) | > 100 µM (inactive) | > 100 µM (inactive) |  | > 100 µM (inactive) | > 100 µM (inactive) | > 100 µM (inactive) | > 100 µM (inactive) | > 100 µM (inactive) | > 100 µM (inactive) | > 100 µM (inactive) | > 100 µM (inactive) | 20 µM (inactive) | > 100 µM (inactive) | > 100 µM (inactive) | > 100 µM (inactive) | 
C=CC1(CC[C@]2(c3ccc(OC)c(OC)c3)C=[N+]([O-])O[C@H](O[C@@H]3CCCC[C@H]3C(C)(C)c3ccccc3)C2)OCC(C)(C)CO1 | 22.5 µM (inactive) | 5.57 µM (inactive) | 21 µM (inactive) | 16.4 µM (inactive) | 19.9 µM (inactive) | 16.2 µM (inactive) | 13.9 µM (inactive) | 14 µM (inactive) | 16.9 µM (inactive) | 3.11 µM (inactive) | 4.18 µM (inactive) | 10.7 µM (inactive) | 25.4 µM (inactive) | 10.8 µM (inactive) | 6.82 µM (inactive) |  | 6.11 µM (inactive) | 16.3 µM (inactive) | 16 µM (inactive) | 1.97 µM (inactive)
CCOP(=O)(OCC)/C(C#N)=C/c1cccn1C(C)C | > 100 µM (inactive) | > 100 µM (inactive) | > 100 µM (inactive) | > 100 µM (inactive) | > 100 µM (inactive) | > 100 µM (inactive) | > 100 µM (inactive) | > 100 µM (inactive) | > 100 µM (inactive) | > 100 µM (inactive) |  | > 100 µM (inactive) | > 100 µM (inactive) | > 100 µM (inactive) | > 100 µM (inactive) |  | > 100 µM (inactive) | > 100 µM (inactive) | > 100 µM (inactive) | 
Cc1ccc2c(c1)NC(=O)CC(c1ccccc1)=N2 | > 100 µM (inactive) | 61.5 µM (inactive) | > 100 µM (inactive) | > 100 µM (inactive) | > 100 µM (inactive) | > 100 µM (inactive) | > 100 µM (inactive) | > 100 µM (inactive) |  | 45.6 µM (inactive) |  | 77.4 µM (inactive) | > 100 µM (inactive) | > 100 µM (inactive) | > 100 µM (inactive) | > 100 µM (inactive) | 23.7 µM (inactive) | > 100 µM (inactive) | > 100 µM (inactive) | 
C[C@]12CC[C@@H]3c4ccc(O)cc4CC[C@H]3[C@@H]1CC[C@@H]2OC(=O)CCC1CCCC1 [ESTRADIOL CYPIONATE] | 20.9 µM (inactive) | 17.3 µM (inactive) | 17.7 µM (inactive) | 26.2 µM (inactive) | 19.1 µM (inactive) | 17.7 µM (inactive) | 13.7 µM (inactive) | 14.4 µM (inactive) | 19.1 µM (inactive) | 17.1 µM (inactive) | 17.8 µM (inactive) | 16.5 µM (inactive) | 23.4 µM (inactive) | 16.7 µM (inactive) | 17.6 µM (inactive) |  | 6.85 µM (inactive) | 20.1 µM (inactive) | 23.8 µM (inactive) | 17.8 µM (inactive)
